# Test results: ChEMBL document CHEMBL4431337, “Synthesis and bioactivities of novel pyrazole oxime derivatives containing a 1,2,3-thiadiazole moiety” (Bioorg Med Chem Lett, 2016)
# Tests used:
# [1] = tested on: HCT-116; test: Cytotoxicity against human HCT116 cells assessed as inhibition of cell growth after 48 hrs by MTT assay; assay type: functional, cell-based; settings: HCT-116, 48 h
# [2] = tested on: Tetranychus cinnabarinus; test: Acaricidal activity against Tetranychus cinnabarinus assessed as mortality at 200 ug/ml pre-incubated with mite-infested Sieva bean plants for 3 secs and measured 48 hrs post dose; assay type: functional
# [3] = tested on: Huh-7; test: Cytotoxicity against human HuH7 cells assessed as inhibition of cell growth after 48 hrs by MTT assay; assay type: functional, cell-based; settings: Huh-7, 48 h
# [4] = tested on: Aphis craccivora; test: Insecticidal activity against Aphis craccivora assessed as mortality at 100 ug/ml pre-incubated with horsebean shoot with aphids for 2 secs and measured 48 hrs post dose by foliar application method; assay type: functional
# [5] = tested on: Aphis craccivora; test: Insecticidal activity against Aphis craccivora assessed as mortality at 200 ug/ml pre-incubated with horsebean shoot with aphids for 2 secs and measured 48 hrs post dose by foliar application method; assay type: functional
# [6] = tested on: PANC-1; test: Cytotoxicity against human PANC1 cells assessed as inhibition of cell growth after 48 hrs by MTT assay; assay type: functional, cell-based; settings: PANC-1, 48 h
# [7] = tested on: Plutella xylostella; test: Insecticidal activity against Plutella xylostella assessed as mortality at 200 ug/ml pre-incubated with cabbage leaves for 2 to 3 secs and measured 48 hrs post dose by leaf disc assay; assay type: functional; settings: foliar
# [8] = tested on: Plutella xylostella; test: Insecticidal activity against Plutella xylostella assessed as mortality at 100 ug/ml pre-incubated with cabbage leaves for 2 to 3 secs and measured 48 hrs post dose by leaf disc assay; assay type: functional; settings: foliar
# [9] = tested on: SGC-7901; test: Cytotoxicity against human SGC7901 cells assessed as inhibition of cell growth after 48 hrs by MTT assay; assay type: functional, cell-based; settings: SGC-7901, 48 h
# [10] = tested on: Aphis craccivora; test: Insecticidal activity against Aphis craccivora assessed as mortality at 50 ug/ml pre-incubated with horsebean shoot with aphids for 2 secs and measured 48 hrs post dose by foliar application method; assay type: functional
# [11] = tested on: Tetranychus cinnabarinus; test: Acaricidal activity against Tetranychus cinnabarinus assessed as mortality at 100 ug/ml pre-incubated with mite-infested Sieva bean plants for 3 secs and measured 48 hrs post dose; assay type: functional
# [12] = tested on: Tetranychus cinnabarinus; test: Acaricidal activity against Tetranychus cinnabarinus assessed as mortality at 50 ug/ml pre-incubated with mite-infested Sieva bean plants for 3 secs and measured 48 hrs post dose; assay type: functional
# [13] = tested on: Plutella xylostella; test: Insecticidal activity against Plutella xylostella assessed as mortality at 50 ug/ml pre-incubated with cabbage leaves for 2 to 3 secs and measured 48 hrs post dose by leaf disc assay; assay type: functional; settings: foliar
Structure (SMILES),IC50 [1] [µM],mortality at 200 µg/mL [2] [%],IC50 [3] [µM],mortality at 100 µg/mL [4] [%],mortality at 200 µg/mL [5] [%],IC50 [6] [µM],mortality at 200 µg/mL [7] [%],mortality at 100 µg/mL [8] [%],IC50 [9] [µM],mortality at 50 µg/mL [10] [%],mortality at 100 µg/mL [11] [%],mortality at 50 µg/mL [12] [%],mortality at 50 µg/mL [13] [%]
Cc1cccc(Oc2c(/C=N/OCc3snnc3C)c(C)nn2C)c1,14.1,0,> 50,70,90,> 50,84,0,12.8,38,–,–,–
CCCc1nnsc1CO/N=C/c1c(C)nn(C)c1Oc1ccccc1Cl,16.4,0,> 50,–,0,> 50,0,–,17.6,–,–,–,–
Cc1nnsc1CO/N=C/c1c(C)nn(C)c1Oc1cccc(C(F)(F)F)c1,10.3,0,> 50,55,62,> 50,45,–,12.4,31,–,–,–
CCCc1nnsc1CO/N=C/c1c(C)nn(C)c1Oc1ccc(F)cc1,7.06,0,> 50,–,0,> 50,0,–,8.64,–,–,–,–
CCCc1nnsc1CO/N=C/c1c(C)nn(C)c1Oc1ccc(Cl)cc1,19.2,0,> 50,–,0,> 50,0,–,18.6,–,–,–,–
Cc1nnsc1CO/N=C/c1c(C)nn(C)c1Oc1cccc(F)c1,> 50,80,> 50,80,98,> 50,71,0,> 50,52,50,0,–
Cc1nnsc1CO/N=C/c1c(C)nn(C)c1Oc1cccc(F)c1F,6.56,0,10.2,–,19,12.2,100,0,25.7,–,–,–,–
CCc1nnsc1CO/N=C/c1c(C)nn(C)c1Oc1ccc(OC(F)(F)F)cc1,12.5,0,> 50,–,0,> 50,0,–,13.6,–,–,–,–
FC(F)(F)c1ccc(OCCCOc2c(Cl)cc(OCC=C(Cl)Cl)cc2Cl)nc1 [PYRIDALYL],–,–,–,–,–,–,100,100,–,–,–,–,100
Cc1nnsc1CO/N=C/c1c(C)nn(C)c1Oc1cc(F)cc(F)c1,8.12,0,> 50,75,90,> 50,100,0,9.41,45,–,–,–
Cc1nnsc1CO/N=C/c1c(C)nn(C)c1Oc1ccc(F)cc1,30.2,0,> 50,90,99,> 50,100,0,> 50,60,–,–,–
Cc1nnsc1CO/N=C/c1c(C)nn(C)c1Oc1ccccc1Cl,42.5,0,> 50,–,15,> 50,100,0,> 50,–,–,–,–
Cc1ccc(Oc2c(/C=N/OCc3snnc3C)c(C)nn2C)cc1,13.8,0,> 50,90,100,> 50,100,0,12.8,58,–,–,–
Cc1nnsc1CO/N=C/c1c(C)nn(C)c1Oc1ccc(Br)cc1,7.19,0,11.8,–,20,12.8,100,80,15.2,–,–,–,43
CCc1nnsc1CO/N=C/c1c(C)nn(C)c1Oc1ccccc1Cl,17.6,0,> 50,–,0,> 50,0,–,15.8,–,–,–,–
CCc1nnsc1CO/N=C/c1c(C)nn(C)c1Oc1ccc(C)cc1,> 50,0,> 50,–,0,> 50,0,–,19.8,–,–,–,–
Cc1nnsc1CO/N=C/c1c(C)nn(C)c1Oc1ccc(I)cc1,43.8,90,> 50,70,95,> 50,64,62,> 50,41,60,0,60
Cc1nnsc1CO/N=C/c1c(C)nn(C)c1Oc1ccccc1OC(F)(F)F,> 50,0,> 50,–,22,> 50,66,0,> 50,–,–,–,–
O=[N+]([O-])/N=C1\NCCN1Cc1ccc(Cl)nc1 [IMIDACLOPRID],–,–,–,100,100,–,–,–,–,100,–,–,–
CCCc1nnsc1CO/N=C/c1c(C)nn(C)c1Oc1ccccc1C,15.7,0,> 50,–,0,> 50,0,–,16.3,–,–,–,–
CCCc1nnsc1CO/N=C/c1c(C)nn(C)c1Cl,> 50,0,> 50,–,0,> 50,0,–,> 50,–,–,–,–
Cc1nnsc1CO/N=C/c1c(C)nn(C)c1Oc1ccc(C(C)(C)C)cc1,33.5,0,> 50,80,95,> 50,100,0,> 50,50,–,–,–
CCc1nnsc1CO/N=C/c1c(C)nn(C)c1Cl,> 50,0,> 50,–,0,> 50,0,–,> 50,–,–,–,–
O=c1[nH]cc(F)c(=O)[nH]1 [FLUOROURACIL],29.5,–,–,–,–,–,–,–,56.1,–,–,–,–
Cc1nnsc1CO/N=C/c1c(C)nn(C)c1Oc1ccc(OC(F)(F)F)cc1,12.8,80,> 50,85,100,> 50,50,0,11.5,59,–,–,–
Cc1nn(C)c(Oc2ccccc2)c1/C=N/OCc1ccc(C(=O)OC(C)(C)C)cc1 [FENPYROXYMATE],–,100,–,–,–,–,–,–,–,–,100,100,–
CNC(=O)c1cc(Oc2ccc(NC(=O)Nc3ccc(Cl)c(C(F)(F)F)c3)cc2)ccn1 [SORAFENIB],–,–,–,–,–,11.5,–,–,–,–,–,–,–
Cc1nnsc1CO/N=C/c1c(C)nn(C)c1Cl,> 50,0,> 50,85,100,26.6,100,0,> 50,61,–,–,–
